The record followed here is ChEMBL document CHEMBL1145498, “A systematic interaction map of validated kinase inhibitors with Ser/Thr kinases” (Proc Natl Acad Sci U S A, 2007).

Test [1] concerns the target Serine/threonine-protein kinase 38 (Homo sapiens) (UniProt Q15208).
The target of test [2] is T1, Serine/threonine-protein kinase 4 (Homo sapiens) (UniProt Q13043).
T1 sequence (whole entry): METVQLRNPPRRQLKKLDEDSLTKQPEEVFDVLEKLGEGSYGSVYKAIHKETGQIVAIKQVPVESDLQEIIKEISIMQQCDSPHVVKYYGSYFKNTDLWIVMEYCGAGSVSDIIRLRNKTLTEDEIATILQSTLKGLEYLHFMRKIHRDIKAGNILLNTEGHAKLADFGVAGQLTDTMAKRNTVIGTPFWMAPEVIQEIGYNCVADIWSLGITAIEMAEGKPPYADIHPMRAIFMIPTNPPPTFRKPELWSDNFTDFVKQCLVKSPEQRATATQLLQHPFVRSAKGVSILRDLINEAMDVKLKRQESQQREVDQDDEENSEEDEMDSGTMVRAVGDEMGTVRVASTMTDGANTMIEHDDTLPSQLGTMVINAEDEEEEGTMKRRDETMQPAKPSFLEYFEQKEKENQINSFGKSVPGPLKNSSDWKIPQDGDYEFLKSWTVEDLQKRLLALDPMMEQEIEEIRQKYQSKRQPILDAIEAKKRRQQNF

Test [3] addresses Dual specificity mitogen-activated protein kinase kinase 2 (Homo sapiens, UniProt P36507).
The target in test [4] is T2, Serine/threonine-protein kinase VRK3 (Homo sapiens) (UniProt Q8IV63).
T2 sequence (whole entry): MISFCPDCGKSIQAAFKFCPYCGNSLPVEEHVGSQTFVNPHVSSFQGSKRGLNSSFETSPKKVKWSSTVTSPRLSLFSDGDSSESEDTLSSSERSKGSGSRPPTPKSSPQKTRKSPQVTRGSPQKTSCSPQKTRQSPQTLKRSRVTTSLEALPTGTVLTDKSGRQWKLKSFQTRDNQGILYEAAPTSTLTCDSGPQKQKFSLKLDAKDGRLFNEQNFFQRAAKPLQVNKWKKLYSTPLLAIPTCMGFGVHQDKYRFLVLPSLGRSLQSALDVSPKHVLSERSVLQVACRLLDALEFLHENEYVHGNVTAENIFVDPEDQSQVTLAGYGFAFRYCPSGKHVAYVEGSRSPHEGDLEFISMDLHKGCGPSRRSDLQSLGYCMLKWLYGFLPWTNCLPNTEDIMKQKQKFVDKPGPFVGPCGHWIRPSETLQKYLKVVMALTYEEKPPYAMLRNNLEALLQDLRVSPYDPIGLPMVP

The target of test [5] is Serine/threonine-protein kinase PAK 6 (Homo sapiens) (UniProt Q9NQU5).
Test [6] deals with Serine/threonine-protein kinase Chk2 (Homo sapiens, UniProt O96017).
Chain of Serine/threonine-protein kinase Chk2 (O96017 whole entry): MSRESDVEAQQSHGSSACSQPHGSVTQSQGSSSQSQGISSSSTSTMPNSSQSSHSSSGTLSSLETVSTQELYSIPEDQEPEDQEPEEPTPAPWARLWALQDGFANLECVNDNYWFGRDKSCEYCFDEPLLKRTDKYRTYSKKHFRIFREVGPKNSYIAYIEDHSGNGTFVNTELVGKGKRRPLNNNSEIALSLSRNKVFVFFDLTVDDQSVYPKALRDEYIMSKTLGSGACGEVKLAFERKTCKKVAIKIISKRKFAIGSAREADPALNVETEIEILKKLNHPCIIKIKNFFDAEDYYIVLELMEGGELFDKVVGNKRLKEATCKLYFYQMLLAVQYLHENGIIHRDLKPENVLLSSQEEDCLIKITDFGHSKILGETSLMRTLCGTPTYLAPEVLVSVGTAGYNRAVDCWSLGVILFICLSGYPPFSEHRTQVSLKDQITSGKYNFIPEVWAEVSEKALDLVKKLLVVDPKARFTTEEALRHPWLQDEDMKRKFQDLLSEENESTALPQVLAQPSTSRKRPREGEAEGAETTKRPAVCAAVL
Test [7] addresses T3, Calcium/calmodulin-dependent protein kinase type IV (Homo sapiens) (UniProt Q16566).
T3 sequence (whole entry): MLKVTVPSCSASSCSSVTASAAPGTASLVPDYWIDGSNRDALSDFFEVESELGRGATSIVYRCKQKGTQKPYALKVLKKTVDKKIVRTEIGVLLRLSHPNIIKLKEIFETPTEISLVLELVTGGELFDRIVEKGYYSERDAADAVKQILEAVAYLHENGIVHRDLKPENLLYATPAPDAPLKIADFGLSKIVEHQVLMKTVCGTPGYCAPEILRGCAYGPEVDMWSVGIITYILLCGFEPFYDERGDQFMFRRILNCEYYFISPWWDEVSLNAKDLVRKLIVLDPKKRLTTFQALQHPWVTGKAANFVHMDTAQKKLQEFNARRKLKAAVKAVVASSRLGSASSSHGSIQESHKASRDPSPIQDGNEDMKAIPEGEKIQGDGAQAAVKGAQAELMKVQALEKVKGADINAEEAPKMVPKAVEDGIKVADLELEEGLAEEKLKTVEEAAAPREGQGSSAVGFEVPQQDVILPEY

The target of test [8] is Serine/threonine-protein kinase pim-2 (Homo sapiens, UniProt Q9P1W9).
Chain of Serine/threonine-protein kinase pim-2 (Q9P1W9 whole entry, looked up): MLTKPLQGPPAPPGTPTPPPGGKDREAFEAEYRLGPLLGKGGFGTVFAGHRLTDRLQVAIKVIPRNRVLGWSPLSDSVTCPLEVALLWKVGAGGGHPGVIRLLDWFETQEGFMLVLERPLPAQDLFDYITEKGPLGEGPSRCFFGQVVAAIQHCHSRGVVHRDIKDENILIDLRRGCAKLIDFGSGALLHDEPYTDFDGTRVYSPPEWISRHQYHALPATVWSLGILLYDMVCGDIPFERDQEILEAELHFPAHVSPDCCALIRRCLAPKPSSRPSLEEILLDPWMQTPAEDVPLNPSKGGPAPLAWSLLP
In test [9] the target is T4, Serine/threonine-protein kinase Nek2 (Homo sapiens) (UniProt P51955).
T4 sequence (whole entry): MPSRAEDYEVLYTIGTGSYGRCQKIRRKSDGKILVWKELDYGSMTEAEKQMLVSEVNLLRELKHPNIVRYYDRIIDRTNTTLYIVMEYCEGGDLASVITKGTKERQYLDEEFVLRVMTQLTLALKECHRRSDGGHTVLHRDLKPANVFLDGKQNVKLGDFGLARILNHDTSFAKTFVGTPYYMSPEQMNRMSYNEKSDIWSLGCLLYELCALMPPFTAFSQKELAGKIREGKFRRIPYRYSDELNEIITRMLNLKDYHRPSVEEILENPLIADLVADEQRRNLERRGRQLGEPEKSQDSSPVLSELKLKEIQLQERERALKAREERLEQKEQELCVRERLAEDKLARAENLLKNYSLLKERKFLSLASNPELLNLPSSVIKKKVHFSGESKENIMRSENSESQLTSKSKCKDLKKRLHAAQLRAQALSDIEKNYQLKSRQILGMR

Test [10] has as its target Serine/threonine-protein kinase 26 (Homo sapiens) (UniProt Q9P289).
In test [11] the target is Mitogen-activated protein kinase 11 (Homo sapiens, UniProt Q15759).
Chain of Mitogen-activated protein kinase 11 (Q15759 whole entry): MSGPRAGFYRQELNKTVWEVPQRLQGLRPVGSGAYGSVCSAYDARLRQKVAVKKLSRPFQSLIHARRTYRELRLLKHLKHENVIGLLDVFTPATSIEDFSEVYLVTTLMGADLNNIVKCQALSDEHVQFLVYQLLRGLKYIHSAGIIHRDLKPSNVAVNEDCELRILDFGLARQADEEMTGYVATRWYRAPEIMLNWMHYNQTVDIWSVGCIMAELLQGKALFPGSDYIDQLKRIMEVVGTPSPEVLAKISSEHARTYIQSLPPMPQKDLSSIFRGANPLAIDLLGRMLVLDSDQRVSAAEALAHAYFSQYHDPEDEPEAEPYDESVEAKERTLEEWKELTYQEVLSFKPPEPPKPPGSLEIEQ
In test [12] the target is STE20-like serine/threonine-protein kinase (Homo sapiens) (UniProt Q9H2G2).
Test [13] concerns the target Serine/threonine-protein kinase pim-1 (Homo sapiens) (UniProt P11309).
Test [14] deals with Serine/threonine-protein kinase RIO2 (Homo sapiens) (UniProt Q9BVS4).
Chain of Serine/threonine-protein kinase RIO2 (Homo sapiens) (Q9BVS4 whole entry, looked up): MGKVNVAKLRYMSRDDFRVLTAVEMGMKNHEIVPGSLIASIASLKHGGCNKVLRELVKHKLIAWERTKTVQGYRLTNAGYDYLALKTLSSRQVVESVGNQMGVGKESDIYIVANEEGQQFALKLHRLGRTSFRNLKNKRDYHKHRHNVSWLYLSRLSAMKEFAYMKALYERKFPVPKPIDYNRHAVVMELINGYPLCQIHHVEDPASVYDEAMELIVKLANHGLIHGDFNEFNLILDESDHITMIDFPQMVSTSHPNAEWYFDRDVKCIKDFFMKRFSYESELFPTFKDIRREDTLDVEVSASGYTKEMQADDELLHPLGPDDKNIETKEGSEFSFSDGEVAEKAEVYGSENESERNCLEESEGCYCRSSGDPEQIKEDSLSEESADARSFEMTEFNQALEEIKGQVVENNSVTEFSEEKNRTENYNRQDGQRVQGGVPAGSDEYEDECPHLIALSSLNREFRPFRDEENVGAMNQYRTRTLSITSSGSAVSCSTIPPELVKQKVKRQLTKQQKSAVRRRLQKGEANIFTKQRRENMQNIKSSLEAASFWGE
The target of test [15] is Calcium/calmodulin-dependent protein kinase type 1D (Homo sapiens) (UniProt Q8IU85).
Chain of Calcium/calmodulin-dependent protein kinase type 1D (Homo sapiens) (Q8IU85 whole entry, looked up): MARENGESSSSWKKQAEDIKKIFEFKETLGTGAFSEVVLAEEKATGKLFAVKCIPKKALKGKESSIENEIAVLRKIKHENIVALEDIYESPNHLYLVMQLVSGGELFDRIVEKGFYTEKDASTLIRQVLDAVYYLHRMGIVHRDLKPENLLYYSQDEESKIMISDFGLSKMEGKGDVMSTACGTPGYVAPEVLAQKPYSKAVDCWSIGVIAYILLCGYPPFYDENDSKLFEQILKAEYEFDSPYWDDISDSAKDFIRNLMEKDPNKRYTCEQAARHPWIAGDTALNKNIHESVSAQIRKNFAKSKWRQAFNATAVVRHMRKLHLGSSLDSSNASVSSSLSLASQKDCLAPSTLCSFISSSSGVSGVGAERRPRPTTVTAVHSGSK
Test [16] addresses Calcium/calmodulin-dependent protein kinase type II subunit gamma (Homo sapiens) (UniProt Q13555).
Test [17] deals with Mitogen-activated protein kinase 3 (Homo sapiens, UniProt P27361).
Chain of Mitogen-activated protein kinase 3 (P27361 whole entry): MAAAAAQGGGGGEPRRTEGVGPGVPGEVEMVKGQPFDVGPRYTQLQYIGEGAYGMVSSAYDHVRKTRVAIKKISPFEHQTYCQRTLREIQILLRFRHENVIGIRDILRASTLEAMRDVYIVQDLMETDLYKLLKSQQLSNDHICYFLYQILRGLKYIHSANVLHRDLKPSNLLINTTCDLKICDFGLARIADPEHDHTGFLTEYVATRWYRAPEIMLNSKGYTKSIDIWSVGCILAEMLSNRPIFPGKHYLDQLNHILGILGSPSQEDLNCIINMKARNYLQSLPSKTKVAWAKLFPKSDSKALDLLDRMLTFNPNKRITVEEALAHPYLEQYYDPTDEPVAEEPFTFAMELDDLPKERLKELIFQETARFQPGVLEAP
Test [18] addresses Serine/threonine-protein kinase 10 (Homo sapiens) (UniProt O94804).
Test [19] concerns the target TRAF2 and NCK-interacting protein kinase (Homo sapiens) (UniProt Q9UKE5).
Test [20] concerns the target Cyclin-dependent kinase 2 (Homo sapiens, UniProt P24941).

Chain of Calcium/calmodulin-dependent protein kinase type II subunit gamma (Homo sapiens) (Q13555 whole entry): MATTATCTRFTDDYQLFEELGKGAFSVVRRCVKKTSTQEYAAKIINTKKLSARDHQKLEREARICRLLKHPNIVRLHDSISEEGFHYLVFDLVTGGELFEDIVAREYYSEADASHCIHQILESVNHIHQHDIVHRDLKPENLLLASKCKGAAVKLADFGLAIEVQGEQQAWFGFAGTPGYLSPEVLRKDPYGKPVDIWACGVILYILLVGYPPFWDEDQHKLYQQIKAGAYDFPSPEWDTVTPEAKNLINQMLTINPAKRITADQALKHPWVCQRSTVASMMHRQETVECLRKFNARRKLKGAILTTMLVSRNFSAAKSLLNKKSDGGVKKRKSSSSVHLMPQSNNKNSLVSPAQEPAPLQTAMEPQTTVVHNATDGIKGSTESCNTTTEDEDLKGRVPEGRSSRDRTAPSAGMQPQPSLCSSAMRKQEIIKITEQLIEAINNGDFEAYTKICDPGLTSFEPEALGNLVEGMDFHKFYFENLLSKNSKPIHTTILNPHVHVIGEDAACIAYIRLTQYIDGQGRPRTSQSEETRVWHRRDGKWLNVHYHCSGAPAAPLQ
Chain of Dual specificity mitogen-activated protein kinase kinase 2 (P36507 whole entry): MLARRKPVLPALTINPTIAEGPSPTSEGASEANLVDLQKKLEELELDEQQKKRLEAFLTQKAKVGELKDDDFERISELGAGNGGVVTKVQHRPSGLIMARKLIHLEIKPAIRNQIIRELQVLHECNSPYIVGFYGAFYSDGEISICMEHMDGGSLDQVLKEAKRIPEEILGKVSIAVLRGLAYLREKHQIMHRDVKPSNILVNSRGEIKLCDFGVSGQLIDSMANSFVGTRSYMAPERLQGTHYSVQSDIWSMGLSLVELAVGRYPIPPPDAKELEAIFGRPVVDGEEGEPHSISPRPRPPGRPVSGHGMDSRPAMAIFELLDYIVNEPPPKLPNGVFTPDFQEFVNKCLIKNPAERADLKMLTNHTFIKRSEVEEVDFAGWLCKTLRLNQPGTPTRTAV
Chain of Serine/threonine-protein kinase 10 (Homo sapiens) (O94804 whole entry, looked up): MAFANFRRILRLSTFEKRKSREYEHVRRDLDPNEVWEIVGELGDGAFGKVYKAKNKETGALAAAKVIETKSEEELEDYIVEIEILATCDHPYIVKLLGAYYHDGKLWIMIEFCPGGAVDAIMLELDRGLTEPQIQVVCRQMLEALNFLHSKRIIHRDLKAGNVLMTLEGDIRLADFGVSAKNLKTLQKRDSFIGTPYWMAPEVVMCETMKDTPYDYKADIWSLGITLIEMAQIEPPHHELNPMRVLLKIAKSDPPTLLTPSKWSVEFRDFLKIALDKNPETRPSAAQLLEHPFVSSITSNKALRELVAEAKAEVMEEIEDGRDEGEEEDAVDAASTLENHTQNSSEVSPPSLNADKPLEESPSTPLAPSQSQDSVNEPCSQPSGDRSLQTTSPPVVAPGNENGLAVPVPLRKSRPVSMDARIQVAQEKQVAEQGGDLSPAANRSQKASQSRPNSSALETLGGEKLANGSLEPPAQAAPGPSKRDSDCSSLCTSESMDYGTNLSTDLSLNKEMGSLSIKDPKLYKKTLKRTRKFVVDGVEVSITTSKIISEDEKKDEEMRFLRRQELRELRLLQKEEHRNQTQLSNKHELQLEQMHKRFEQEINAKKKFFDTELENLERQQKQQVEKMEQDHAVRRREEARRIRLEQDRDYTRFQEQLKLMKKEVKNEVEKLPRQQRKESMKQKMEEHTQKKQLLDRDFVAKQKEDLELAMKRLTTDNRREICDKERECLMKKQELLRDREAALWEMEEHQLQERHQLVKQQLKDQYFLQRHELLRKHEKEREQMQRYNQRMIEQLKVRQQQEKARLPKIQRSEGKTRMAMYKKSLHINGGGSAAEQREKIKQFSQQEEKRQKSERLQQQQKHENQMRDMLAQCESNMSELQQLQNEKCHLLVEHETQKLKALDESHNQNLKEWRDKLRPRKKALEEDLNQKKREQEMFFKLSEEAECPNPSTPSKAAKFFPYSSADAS
Chain of Serine/threonine-protein kinase 38 (Homo sapiens) (Q15208 2-465 limits assumed): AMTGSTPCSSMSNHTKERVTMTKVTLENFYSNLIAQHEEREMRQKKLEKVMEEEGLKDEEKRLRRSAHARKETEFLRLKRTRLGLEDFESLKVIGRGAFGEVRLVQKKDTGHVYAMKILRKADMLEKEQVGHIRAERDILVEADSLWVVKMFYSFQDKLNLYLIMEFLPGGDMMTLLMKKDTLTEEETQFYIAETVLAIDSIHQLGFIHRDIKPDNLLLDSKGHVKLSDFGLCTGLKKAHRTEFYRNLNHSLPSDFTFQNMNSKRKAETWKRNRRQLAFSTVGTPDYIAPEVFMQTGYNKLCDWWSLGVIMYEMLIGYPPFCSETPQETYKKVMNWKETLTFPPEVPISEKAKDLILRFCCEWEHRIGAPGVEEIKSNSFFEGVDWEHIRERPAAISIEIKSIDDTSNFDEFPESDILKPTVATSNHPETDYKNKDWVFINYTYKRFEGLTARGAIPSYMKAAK

Turning to `CCOc1ccc(/C=C2/SC(=O)N(CCN)C2=O)cc1` [HIAZOLIDINEDIONE1], the ΔTm (commonly the shift of the melting midpoint relative to a reference) in [1] is 0.5 °C; in [2], 0.4 °C; in test [3] it was 0.4 °C; in test [4], -1.1 °C; in test [5] it was -0.5 °C; in [6], 0.7 °C. Moreover, the ΔTm in test [7] was 0.4 °C; in test [8], -0.1 °C; in test [9] it was 0.8 °C; in test [10], -0.1 °C; in test [11], 0.5 °C; in test [12], -0.4 °C. The ΔTm in [13] was -0.4 °C; in test [14] it was -0.2 °C; in test [15], -0.2 °C; in test [16] it was 0 °C; in test [17], -0.1 °C; in test [18], 0.8 °C. Also, the ΔTm in test [19] is -0.4 °C; in test [20], -0.1 °C.

Take `Cc1cc(Nc2nc(-c3ccccc3)nc3ccccc23)n[nH]1`: the ΔTm in [1] was found to be 4 °C; in test [2], 7.4 °C; in [3], 3.2 °C; in [4] it was 6.6 °C; in test [5], 5.4 °C; in test [6], 5.7 °C. Also, the ΔTm in test [7] is 4.7 °C; in [8], 0.7 °C; in test [9], 3 °C; in test [10], 9.5 °C; in test [11], 0.1 °C; in test [12], 7.1 °C. Further, the ΔTm was 1.7 °C in test [13]; 5.3 °C in test [14]; 3.5 °C in [15]; 1.9 °C in [16]; 0.1 °C in test [17]; 11.1 °C in test [18]. Moreover, the ΔTm was -1 °C in test [19] and 3 °C in test [20].

Consider `CCOC(=O)c1cnc2oc3ccc(O)cc3c2c1-c1ccccc1`, for which the ΔTm was 0.2 °C in test [1]; 3.4 °C in [2]; 0.5 °C in [3]; -0.6 °C in test [4]; 0.3 °C in test [5]; 0.8 °C in test [6]. The ΔTm in [7] was 0.8 °C; in test [8], 6.3 °C; in test [9] it was 0.9 °C; in [10], 0 °C; in test [11] it was -0.6 °C; in test [12], 2.3 °C. Besides, the ΔTm in [13] was 5.1 °C; in test [14], 1.2 °C; in [15], 0.4 °C; in [16] it was 0.5 °C; in test [17] it was -0.1 °C; in [18] it was 2.9 °C. Besides, the figures for the ΔTm in test [19] and in test [20] were 1.3 °C and 1 °C, respectively.

In the case of `c1ccc(-c2n[nH]c3c2oc2ccccc23)cc1`, the ΔTm is 1.4 °C in test [1]; 4.3 °C in test [2]; -0.4 °C in [3]; 1.8 °C in test [4]; -0.3 °C in test [5]; 0.7 °C in [6]. Moreover, the ΔTm in test [7] was -0.2 °C; in test [8] it was 1.1 °C; in test [9], 0.1 °C; in test [10], 3.4 °C; in test [11], 1.2 °C; in [12], 1.6 °C. Further, the ΔTm in test [13] is -0.5 °C; in test [14], 2.9 °C; in test [15] it was 0.6 °C; in test [16], 0.4 °C; in test [17] it was 0.3 °C; in [18] it was 1.9 °C. Moreover, the ΔTm in test [19] is 0.4 °C; in test [20], 0.7 °C.

In the case of `C=CNC#N`, the ΔTm is 0.7 °C in test [1]; 1.9 °C in test [2]; 1.8 °C in test [3]; 0.9 °C in test [4]; 0.5 °C in [5]; 0.1 °C in [6]. Moreover, the ΔTm is 0.9 °C in [7]; 0.3 °C in test [8]; 2.1 °C in [9]; 1.5 °C in [10]; -0.1 °C in test [11]; 0.1 °C in test [12]. Besides, the ΔTm in [13] is 0.1 °C; in test [14], 0 °C; in test [15], 0.7 °C; in [16] it was 0.5 °C; in [17] it was -0.6 °C; in test [18], -0.3 °C. In addition, the ΔTm was 0.1 °C in [19] and -0.2 °C in [20].

`O=C1Nc2ccccc2/C1=C\c1ccc[nH]1`: the ΔTm is 2.7 °C in [1]; 7.7 °C in test [2]; 2.4 °C in test [3]; 0.1 °C in test [4]; 1.6 °C in test [5]; 4.1 °C in test [6]. In addition, the ΔTm worked out at 0.6 °C in test [7]; 0.8 °C in test [8]; 1.7 °C in [9]; 3.9 °C in [10]; 0.3 °C in test [11]; 3.1 °C in [12]. Further, the ΔTm amounted to 0.1 °C in [13]; 3 °C in test [14]; 1.3 °C in test [15]; 1.4 °C in test [16]; 0.3 °C in test [17]; 5.3 °C in [18]. The ΔTm in test [19] worked out at 6.2 °C; in test [20] it was 3.4 °C.

As for `N#CC(C#N)=Cc1ccc(O)c(O)c1` [TYRPHOSTIN 23], the ΔTm in test [1] is 0.2 °C; in test [2], 0.6 °C; in test [3], 0.1 °C; in test [4] it was -0.2 °C; in [5], -0.2 °C; in test [6], 0.7 °C. The ΔTm in [7] is 0.4 °C; in [8] it was 1 °C; in test [9], 1.2 °C; in test [10], 0.1 °C; in test [11] it was 0.3 °C; in test [12], 0.6 °C. Besides, the ΔTm in test [13] was 1.5 °C; in test [14] it was 1.5 °C; in test [15], 0.2 °C; in test [16], -0.1 °C; in [17], 0.3 °C; in test [18] it was 0.5 °C. In addition, the figures for the ΔTm in test [19] and in test [20] were 0.2 °C and 1.1 °C, respectively.
